ChEMBL document CHEMBL1201862, “PubChem BioAssay data set” (2004)
Blank lines part the entries; values can stand above or below the molecule they belong to. Activity calls are given as the source filed them. Unless noted, the calls are words filed in the database; no cut-off is given here.

Tests used:
Type in all cases: functional
[1] = molecular target: Muscarinic acetylcholine receptor M1 (Rattus norvegicus, UniProt P08482); experiment: rat M1 positive allosteric modulator potency, dose response, cell-based, calcium mobilization, CHO-K1, ACh EC20 (AID 2425)
Muscarinic acetylcholine receptor M1, sequence (P08482 whole entry): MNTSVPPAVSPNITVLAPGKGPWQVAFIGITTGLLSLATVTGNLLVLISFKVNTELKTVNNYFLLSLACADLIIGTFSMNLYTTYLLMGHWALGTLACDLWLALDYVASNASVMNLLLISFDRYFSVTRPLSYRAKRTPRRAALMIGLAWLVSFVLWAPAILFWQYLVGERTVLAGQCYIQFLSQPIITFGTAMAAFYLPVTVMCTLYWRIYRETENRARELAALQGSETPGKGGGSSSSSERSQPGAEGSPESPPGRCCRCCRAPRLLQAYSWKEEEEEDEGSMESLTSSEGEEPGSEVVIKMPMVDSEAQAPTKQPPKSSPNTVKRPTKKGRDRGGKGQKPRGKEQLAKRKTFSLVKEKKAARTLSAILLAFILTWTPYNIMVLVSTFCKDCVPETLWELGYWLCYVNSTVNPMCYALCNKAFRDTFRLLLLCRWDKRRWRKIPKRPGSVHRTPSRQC

[2] = molecular target: T1, Mucolipin-3 (Homo sapiens, UniProt Q8TDD5); experiment: Dose response cell-based high-throughput screening assay for agonists of the transient receptor potential channel ML3 (TRPML3). [Related pubchem assays: 1526, 1424, 1448 ]
T1 sequence (Q8TDD5 whole entry): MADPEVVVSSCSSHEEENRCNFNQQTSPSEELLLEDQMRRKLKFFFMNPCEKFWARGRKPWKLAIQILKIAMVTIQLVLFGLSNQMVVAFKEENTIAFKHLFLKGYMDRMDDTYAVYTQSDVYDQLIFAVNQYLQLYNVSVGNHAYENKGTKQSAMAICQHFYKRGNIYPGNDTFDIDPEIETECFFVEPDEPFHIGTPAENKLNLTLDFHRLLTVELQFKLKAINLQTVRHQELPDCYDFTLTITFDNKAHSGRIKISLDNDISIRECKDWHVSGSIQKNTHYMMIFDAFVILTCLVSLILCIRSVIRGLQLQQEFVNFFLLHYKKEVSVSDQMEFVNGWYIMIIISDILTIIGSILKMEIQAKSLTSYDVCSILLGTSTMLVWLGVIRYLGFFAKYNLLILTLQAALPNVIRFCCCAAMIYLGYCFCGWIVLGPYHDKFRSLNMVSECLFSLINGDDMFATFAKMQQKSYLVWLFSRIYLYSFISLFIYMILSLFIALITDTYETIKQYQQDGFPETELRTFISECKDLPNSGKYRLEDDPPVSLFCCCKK

[3] = molecular target: T2, Corticotropin-releasing factor receptor 2/Corticotropin-releasing factor-binding protein (Homo sapiens, UniProt P24387+Q13324); experiment: activators of CRF receptor 2 with binding protein – uHTS hits, confirmation (AID 602473); details: read-out: EC50_Mean
T2 sequence (Q13324 whole entry): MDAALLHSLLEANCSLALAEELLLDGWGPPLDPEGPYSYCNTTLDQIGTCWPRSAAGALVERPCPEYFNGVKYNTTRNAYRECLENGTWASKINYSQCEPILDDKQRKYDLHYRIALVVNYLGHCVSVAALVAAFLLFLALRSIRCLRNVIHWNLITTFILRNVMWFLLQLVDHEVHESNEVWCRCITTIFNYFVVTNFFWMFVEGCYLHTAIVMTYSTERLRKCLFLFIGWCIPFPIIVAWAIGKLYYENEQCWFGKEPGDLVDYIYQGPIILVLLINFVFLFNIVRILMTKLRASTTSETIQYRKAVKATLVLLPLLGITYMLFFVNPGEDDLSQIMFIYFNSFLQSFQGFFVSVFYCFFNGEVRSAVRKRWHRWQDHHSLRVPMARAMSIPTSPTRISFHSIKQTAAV
T2 sequence (P24387 whole entry): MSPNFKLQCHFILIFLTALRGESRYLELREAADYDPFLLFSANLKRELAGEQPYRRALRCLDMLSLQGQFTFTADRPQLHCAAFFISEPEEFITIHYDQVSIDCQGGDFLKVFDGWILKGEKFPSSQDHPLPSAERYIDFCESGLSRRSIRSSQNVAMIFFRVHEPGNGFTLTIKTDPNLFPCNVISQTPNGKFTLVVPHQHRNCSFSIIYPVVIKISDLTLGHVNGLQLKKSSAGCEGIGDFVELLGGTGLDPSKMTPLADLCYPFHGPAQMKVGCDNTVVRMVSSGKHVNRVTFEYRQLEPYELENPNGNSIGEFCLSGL

[4] = molecular target: T3, Ion channel NompC (Danio rerio, UniProt Q7T1G6); experiment: Fluorescence counterscreen assay for TRPML3 agonists: dose response cell-based high-throughput screening assay to identify agonists of the transient receptor potential channel N1 (TRPN1). [Related pubchem assays: 1526, 1424, 1448 ]
T3 sequence (Q7T1G6 whole entry): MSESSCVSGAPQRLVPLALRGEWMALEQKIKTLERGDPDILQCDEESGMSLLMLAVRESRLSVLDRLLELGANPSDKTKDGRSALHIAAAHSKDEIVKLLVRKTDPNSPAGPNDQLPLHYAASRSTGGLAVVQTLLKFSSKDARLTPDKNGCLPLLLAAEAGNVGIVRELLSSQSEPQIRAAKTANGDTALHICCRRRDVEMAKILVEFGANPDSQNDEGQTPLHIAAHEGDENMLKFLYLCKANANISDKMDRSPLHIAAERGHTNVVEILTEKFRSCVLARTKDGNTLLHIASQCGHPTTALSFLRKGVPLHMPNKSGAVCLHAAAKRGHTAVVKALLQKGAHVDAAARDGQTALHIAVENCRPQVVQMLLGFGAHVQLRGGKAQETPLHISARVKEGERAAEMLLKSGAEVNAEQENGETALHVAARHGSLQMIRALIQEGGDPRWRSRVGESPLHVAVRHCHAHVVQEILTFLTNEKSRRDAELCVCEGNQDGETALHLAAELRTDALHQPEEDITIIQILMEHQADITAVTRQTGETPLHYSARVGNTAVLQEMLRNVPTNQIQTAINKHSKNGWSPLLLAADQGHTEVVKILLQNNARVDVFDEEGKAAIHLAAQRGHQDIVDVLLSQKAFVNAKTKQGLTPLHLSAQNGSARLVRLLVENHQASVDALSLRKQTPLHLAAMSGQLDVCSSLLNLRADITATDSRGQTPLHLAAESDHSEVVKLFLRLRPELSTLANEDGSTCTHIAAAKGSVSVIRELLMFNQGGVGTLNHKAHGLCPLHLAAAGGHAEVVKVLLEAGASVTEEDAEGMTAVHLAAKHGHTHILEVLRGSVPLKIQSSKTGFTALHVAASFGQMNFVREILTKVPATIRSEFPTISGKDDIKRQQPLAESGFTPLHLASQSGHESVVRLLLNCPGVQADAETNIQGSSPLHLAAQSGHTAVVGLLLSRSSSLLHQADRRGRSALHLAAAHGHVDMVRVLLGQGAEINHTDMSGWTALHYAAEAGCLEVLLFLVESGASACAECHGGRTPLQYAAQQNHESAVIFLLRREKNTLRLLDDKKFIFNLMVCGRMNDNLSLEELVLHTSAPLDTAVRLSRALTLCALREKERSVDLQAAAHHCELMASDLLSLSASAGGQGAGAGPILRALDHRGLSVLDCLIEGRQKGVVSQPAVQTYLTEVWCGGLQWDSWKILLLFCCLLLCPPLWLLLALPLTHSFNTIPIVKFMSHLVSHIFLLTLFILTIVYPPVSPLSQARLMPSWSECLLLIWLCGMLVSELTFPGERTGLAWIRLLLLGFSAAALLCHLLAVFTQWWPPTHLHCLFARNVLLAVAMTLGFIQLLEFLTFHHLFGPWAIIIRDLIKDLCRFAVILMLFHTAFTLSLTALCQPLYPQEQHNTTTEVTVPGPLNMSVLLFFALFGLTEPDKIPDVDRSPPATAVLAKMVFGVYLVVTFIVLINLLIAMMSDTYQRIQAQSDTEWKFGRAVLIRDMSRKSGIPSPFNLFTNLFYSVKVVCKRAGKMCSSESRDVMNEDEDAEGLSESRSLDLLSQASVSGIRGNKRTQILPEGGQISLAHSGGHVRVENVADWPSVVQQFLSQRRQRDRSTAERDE

[5] = molecular target: T1, Mucolipin-3; experiment: TRPML3 agonist potency, dose response, cell-based, calcium fluorescence (AID 2510)
[6] = molecular target: T3, Ion channel NompC; experiment: Late stage counterscreen for the probe development effort to identify selective agonists of the Transient Receptor Potential Channels 3 (TRPML3): fluorescence-based cell-based dose response assay for TRPN1 agonists.
[7] = molecular target: T4, NADPH oxidase 1 (Homo sapiens, UniProt Q9Y5S8); experiment: Late-stage luminescence-based cell-based dose response assay to identify inhibitors of NADPH oxidase 1 (NOX1): Synthesized analogs 2.
T4 sequence (Q9Y5S8 whole entry): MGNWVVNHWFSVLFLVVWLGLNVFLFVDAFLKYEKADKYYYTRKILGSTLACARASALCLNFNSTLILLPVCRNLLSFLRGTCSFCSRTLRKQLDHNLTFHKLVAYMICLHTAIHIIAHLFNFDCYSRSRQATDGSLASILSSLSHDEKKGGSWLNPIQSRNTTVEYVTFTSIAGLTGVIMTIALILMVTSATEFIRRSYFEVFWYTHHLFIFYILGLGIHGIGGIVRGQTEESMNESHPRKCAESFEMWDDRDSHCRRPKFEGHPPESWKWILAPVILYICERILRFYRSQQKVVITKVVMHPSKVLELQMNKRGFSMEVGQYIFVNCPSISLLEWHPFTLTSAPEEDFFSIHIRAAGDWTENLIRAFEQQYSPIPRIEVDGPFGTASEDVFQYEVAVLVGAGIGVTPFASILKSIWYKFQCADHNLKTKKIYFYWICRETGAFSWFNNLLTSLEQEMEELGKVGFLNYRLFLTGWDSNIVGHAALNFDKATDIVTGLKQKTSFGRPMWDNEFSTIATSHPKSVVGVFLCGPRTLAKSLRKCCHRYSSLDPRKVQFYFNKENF

EC50 [1]: 0.885 µM (active)
Structure (SMILES): Cn1cc(-c2cc(F)c(CN3C(=O)C(=O)c4ccccc43)c(F)c2)cn1

EC50 [2]: 1.33 µM (active) | EC50 [3]: > 53 µM (inactive) | EC50 [4]: > 29.9 µM (not active) | EC50 [5]: 1.12 µM (active) | EC50 [6]: > 29.9 µM (not active)
Structure (SMILES): CC1CCN(S(=O)(=O)c2ccc(C(C)C)cc2)CC1

IC50 [7]: > 50 µM (not active)
Structure (SMILES): CN1c2ccccc2Sc2cc(Br)ccc21
